These results are taken from article PMC5371667, “Targeting Bile Acid Receptors: Discovery of a Potent and Selective Farnesoid X Receptor Agonist as a New Lead in the Pharmacological Approach to Liver Diseases” (Frontiers in Pharmacology, 2017).

For data set [1] the following is noted: cited from earlier work.
The target of the next data set is T1, GST-fusion FXR-LBD (Homo sapiens, UniProt Q96RI1).
T1 construct: 10 nM of purified GST-tagged FXR-LBD protein
T1 sequence (Q96RI1 262-486 limits assumed): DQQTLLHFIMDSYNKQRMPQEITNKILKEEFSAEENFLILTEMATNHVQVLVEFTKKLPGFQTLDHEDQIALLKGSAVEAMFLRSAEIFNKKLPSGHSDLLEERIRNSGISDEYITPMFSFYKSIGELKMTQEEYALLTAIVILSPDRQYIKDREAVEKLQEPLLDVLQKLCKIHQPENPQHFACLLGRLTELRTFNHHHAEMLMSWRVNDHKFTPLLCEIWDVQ
As to the kind of experiment: Alpha Screen coactivator (SRC-1 peptide) recruitment assay. The data set is classed as biochemical. Conditions: recruitment of SRC-1 co-activator peptide, Alfa Screen, Table 1; for Efficacy: 6-ECDCA = 100. Here is the method:
Activation of FXR was determined by Alpha Screen Technology in a Coactivator Recruitment Assay. Anti-GST-coated acceptor beads were used to capture the GST-fusion FXR-LBD, whereas the biotinylated-SRC-1 peptide was captured by the streptavidin donor beads. Upon illumination at 680 nm, chemical energy is transferred from donor to acceptor beads across the complex streptavidin-donor/[…]-LBD/anti-GST-acceptor and a signal is produced. The assay was performed in white, low-volume, 384-well Optiplates (PerkinElmer) using a final volume of 25 μL containing final concentrations of 10 nM of purified GST-tagged FXR-LBD protein, 30 nM biotinylated SRC-1 peptide, 20 μg/mL anti-GST acceptor beads, and 10 μg/mL of streptavidin donor bead (PerkinElmer). The assay buffer contained 50 mM Tris (pH 7.4), 50 mM KCl and 1 mM DTT. The stimulation times with 1 μL of tested compound (dissolved in 50% DMSO/H2O) were fixed to 30 min at room temperature. The concentration of DMSO in each well was maintained at a final concentration of 2%. After the addition of the detection mix (acceptor and donor beads), the plates were incubated in the dark for 3 h at room temperature and then were read in an Envision microplate analyzer (PerkinElmer).

Another data set concerns the target T2, hFXR (Homo sapiens, UniProt Q96RI1).
T2 construct: expressed in transfected cells; host or cells: HepG2
T2 sequence (Q96RI1 1-486): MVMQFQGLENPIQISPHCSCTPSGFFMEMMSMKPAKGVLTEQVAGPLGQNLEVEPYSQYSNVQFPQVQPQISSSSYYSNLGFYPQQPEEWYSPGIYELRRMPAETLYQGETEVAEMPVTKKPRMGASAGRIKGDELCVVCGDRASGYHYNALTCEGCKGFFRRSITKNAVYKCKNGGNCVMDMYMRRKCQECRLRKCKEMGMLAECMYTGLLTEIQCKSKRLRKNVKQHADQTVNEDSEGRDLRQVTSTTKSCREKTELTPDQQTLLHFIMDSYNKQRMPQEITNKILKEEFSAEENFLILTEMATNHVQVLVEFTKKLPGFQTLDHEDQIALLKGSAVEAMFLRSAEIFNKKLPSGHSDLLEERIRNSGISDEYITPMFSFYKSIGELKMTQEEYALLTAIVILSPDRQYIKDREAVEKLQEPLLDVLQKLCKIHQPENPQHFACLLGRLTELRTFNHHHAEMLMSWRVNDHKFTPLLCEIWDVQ
T2 sequence (P19793 1-462 partner): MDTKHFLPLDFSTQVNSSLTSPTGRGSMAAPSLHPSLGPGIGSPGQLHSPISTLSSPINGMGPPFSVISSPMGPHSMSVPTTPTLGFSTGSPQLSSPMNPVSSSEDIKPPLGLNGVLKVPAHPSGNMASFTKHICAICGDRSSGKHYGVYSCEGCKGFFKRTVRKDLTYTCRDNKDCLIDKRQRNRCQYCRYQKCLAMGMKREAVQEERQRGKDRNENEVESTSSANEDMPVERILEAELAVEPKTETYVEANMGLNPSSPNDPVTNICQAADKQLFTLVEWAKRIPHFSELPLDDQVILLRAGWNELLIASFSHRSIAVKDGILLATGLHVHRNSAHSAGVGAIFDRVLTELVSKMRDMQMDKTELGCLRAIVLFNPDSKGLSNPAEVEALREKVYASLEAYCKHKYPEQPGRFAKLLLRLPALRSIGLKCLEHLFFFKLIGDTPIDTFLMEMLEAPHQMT
As to the kind of experiment: FXR transactivation on HepG2 cells (luciferase reporter). It counts as cell-based. The protocol:
HepG2 (HB, 8065 from ATCC), an immortalized human epatocarcinoma cell line, was cultured and maintained at 37°C and 5% CO2 in E-MEM additioned with 10% FBS, 1% glutamine, and 1% penicillin/streptomycin. For FXR mediated transactivation, HepG2 cells were plated at 5 × 10^4 cells/well in a 24 well plate. Cells were transfected with 200 ng of the reporter vector p(hsp27)-TK-LUC containing a FXR response element (IR1) cloned from the promoter of heat shock protein 27 (hsp27), 100 ng of pSG5-FXR, 100 ng of pSG5-RXR, and 100 ng of pGL4.70 (Promega), a vector encoding the human Renilla gene. For GPBAR1 mediated transactivation, HepG2 cells were plated at 5 × 10^4 cells/well in a 24 well-plate and transfected with 200 ng of pGL4.29 (Promega), a reporter vector containing a cAMP response element (CRE) that drives the transcription of the luciferase reporter gene luc2P, with 100 ng of pCMVSPORT6-human GPBAR1, and with 100 ng of pGL4.70 Renilla. […]. TLCA (10 μM) was used as a positive control for GPBAR1 activity.
HepG2 cells were transfected as described above and then treated with increasing concentrations of compounds. At 18 h post stimulations, cellular lysates were assayed for luciferase and Renilla activities using the Dual-Luciferase Reporter assay system (E1980, Promega). Luminescence was measured using Glomax 20/20 luminometer (Promega). Luciferase activities were normalized with Renilla activities.
(A reporter such as luciferase makes a cellular process visible.)

A short description of data set [2]: In vivo metabolic profile of compound 2 in mice (LC-MS). The following applies: 50 mg/kg oral of compound 2, LC-MS.
A further data set concerns the target T3, human GPBAR1 (Homo sapiens, UniProt Q8TDU6).
T3 construct: expressed in transfected cells; host or cells: HepG2
T3 sequence (Q8TDU6 1-330): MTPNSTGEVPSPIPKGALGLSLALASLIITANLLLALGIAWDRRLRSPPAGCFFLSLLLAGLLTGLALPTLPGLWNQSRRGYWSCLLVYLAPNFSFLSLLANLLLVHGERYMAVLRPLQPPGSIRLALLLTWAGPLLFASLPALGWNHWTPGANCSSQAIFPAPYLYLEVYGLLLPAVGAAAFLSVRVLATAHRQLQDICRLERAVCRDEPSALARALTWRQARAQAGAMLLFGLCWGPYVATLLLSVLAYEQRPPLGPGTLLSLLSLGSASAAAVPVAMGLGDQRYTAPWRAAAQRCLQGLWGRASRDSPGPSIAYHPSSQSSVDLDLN
As to the kind of experiment: GPBAR1 transactivation on HepG2 cells (CRE luciferase reporter). It counts as cell-based. The following applies: compounds at 1 and 10 μM, TLCA 10 μM positive control. Here is the method:
For FXR mediated transactivation, HepG2 cells were plated at 5 × 10^4 cells/well in a 24 well plate. Cells were transfected with 200 ng of the reporter vector p(hsp27)-TK-LUC containing a FXR response element (IR1) cloned from the promoter of heat shock protein 27 (hsp27), 100 ng of pSG5-FXR, 100 ng of pSG5-RXR, and 100 ng of pGL4.70 (Promega), a vector encoding the human Renilla gene. For GPBAR1 mediated transactivation, HepG2 cells were plated at 5 × 10^4 cells/well in a 24 well-plate and transfected with 200 ng of pGL4.29 (Promega), a reporter vector containing a cAMP response element (CRE) that drives the transcription of the luciferase reporter gene luc2P, with 100 ng of pCMVSPORT6-human GPBAR1, and with 100 ng of pGL4.70 Renilla. […] TLCA (10 μM) was used as a positive control for GPBAR1 activity.

Setting [3] is: PBC patients, ref Mason et al., 2010.

Read-outs that look alike come from different tables or passages of the source.

In the case of `CC[C@H]1[C@@H](O)[C@@H]2[C@H](CC[C@]3(C)[C@@H]([C@H](C)CCC(=O)O)CC[C@@H]23)[C@@]2(C)CC[C@@H](O)C[C@@H]12` [6-ECDCA], in data set [1] (setting [3]), the “patients with drug discontinuation caused by pruritus” value is 40% and the “patients with pruritus (itching)” value is reported as 50–60%. For the same molecule, in data set [1] (patients with NASH, ref Neuschwander-Tetri et al., 2015), the “patients with pruritus (itching)” value was 23%.
As to `CCC1C(=O)C2C3CCC(C(C)CCC(=O)O)C3(C)CCC2C2(C)CCC(N=[N+]=[N-])CC12` (stereo not shown) [compound 1], the Efficacy at GST-fusion FXR-LBD worked out at 32.
Usually EC50 stands for the concentration needed to bring the measured effect to its halfway point. With `CC[C@H]1[C@@H](O)C2C3CC[C@H]([C@H](C)CCC(=O)NCCS(=O)(=O)O)[C@@]3(C)CCC2[C@@]2(C)CC[C@H](N=[N+]=[N-])C[C@@H]12` (stereo partly shown) [compound 2a], the EC50 on hFXR (10 nM to 25 μM, 18 h) came to 3950 nM. The “agonist activity toward FXR” value on hFXR (dose-response) was “full agonist activity”. Moreover, in data set [2], the “recovery in bile and plasma after administration of compound 2” value is “efficiently recovered in bile and in plasma”.
At GST-fusion FXR-LBD, `CCC1C(O)C2C3CCC(C(C)CCCO)C3(C)CCC2C2(C)CCC(N=[N+]=[N-])CC12` (stereo not shown) [compound 3] gave an EC50 of 550 ± 80 nM and an Efficacy of 55.
On to `CCC1C(O)C2C3CCC(C(C)CCCO)C3(C)CCC2C2(C)CCC(N=[N+]=[N-])CC12` (stereo not shown) [compound 4], for which, on GST-fusion FXR-LBD, the Efficacy came out at 39.
At GST-fusion FXR-LBD, `CCC1C(=O)C2C3CCC(C(C)CCC(=O)O)C3(C)CCC2C2(C)CCC(N=[N+]=[N-])CC12` (stereo not shown) [compound 5] returned an Efficacy of 24.
On GST-fusion FXR-LBD, `CCC1C(O)C2C3CCC(C(C)CCC(=O)O)C3(C)CCC2C2(C)CCC(N=[N+]=[N-])CC12` (stereo not shown) [compound 6] had an EC50 of 1380 ± 350 nM and an Efficacy of 61.
On the same counts, the results for `CCC1C(O)C2C3CCC(C(C)CCCO)C3(C)CCC2C2(C)CCC(N=[N+]=[N-])CC12` (stereo not shown) [compound 7] are 1800 ± 210 nM and 57.
Turning to `CCC1C(O)C2C3CCC(C(C)CCCO)C3(C)CCC2C2(C)CCC(N=[N+]=[N-])CC12` (stereo not shown) [compound 8], at GST-fusion FXR-LBD, the Efficacy is recorded as 49.
For the molecule `CCC1C(O)C2C3CCC(C(C)CCCO)C3(C)CCC2C2(C)CCC(N)CC12` (stereo not shown) [compound 11], the GPBAR1 transactivation entry on human GPBAR1 was “residual activity”.
On to `CCC1C(=O)C2C3CCC(C(C)CCC(=O)O)C3(C)CCC2C2(C)CCC(N)CC12` (stereo not shown) [compound 13], for which the GPBAR1 transactivation result on human GPBAR1 was “residual activity”.
In the case of `CCC1C(O)C2C3CCC(C(C)CCC(=O)O)C3(C)CCC2C2(C)CCC(N)CC12` (stereo not shown) [compound 14], the GPBAR1 transactivation result on human GPBAR1 was “residual activity”.
